Results as given in patent US4442044A, “Process for preparing monoesters and diesters of N-alkyl substituted amino methyl phosphonic acid” (priority 1983, dated 1984).

What was measured:
Assay in all cases: post-emergent herbicidal activity, greenhouse
Assay type in all cases: in vivo
Hemp Sesbania = settings: Table II
How it was run: (§1)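 Seeds or propagules sown in compacted top soil, grown 2–3 weeks in greenhouse, then sprayed with compound solution/suspension containing ~0.4% emulsifier at tabulated rates. Injury scored visually versus untreated controls at ~2 and 4 weeks after treatment, expressed as a herbicidal activity index.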

Wheat = settings: Table II
How it was run: as §1

Sugar Beet = settings: Table II
How it was run: as §1

Johnsongrass = settings: Table I, 4 WAT
How it was run: as §1

Panicum Spp = settings: Table II
How it was run: as §1

Crabgrass = settings: Table II
How it was run: as §1

Barnyardgrass = tested on: Barnyardgrass
How it was run: as §1

Cocklebur = tested on: Cocklebur
How it was run: as §1

Lambsquarters = tested on: Lambsquarters
How it was run: as §1

Downy Brome = tested on: Downy Brome
How it was run: as §1

Wild Buckwheat = settings: Table II
How it was run: as §1

Yellow Nutsedge = settings: Table I, 4 WAT
How it was run: as §1

Canada Thistle = settings: Table I, 4 WAT
How it was run: as §1

Quackgrass = settings: Table I, 4 WAT
How it was run: as §1

Rice = settings: Table II
How it was run: as §1

Soybean = settings: Table II
How it was run: as §1

Morningglory = tested on: Morningglory
How it was run: as §1

Smartweed = tested on: Smartweed
How it was run: as §1

Sorghum = settings: Table II
How it was run: as §1

Velvetleaf = tested on: Velvetleaf
How it was run: as §1

CC(C#N)OP(=O)(CNCC#N)OC(C)C#N (stereo not drawn) [Example 12, phosphonic acid, [[(cyanomethyl)amino]-methyl],bis 1-cyanoethyl ester]
post-emergent herbicidal activity index (Hemp Sesbania; 2 WAT, 0.28 kg/h): 0 (0-24% control) | post-emergent herbicidal activity index (Hemp Sesbania; 4 WAT, 1.12 kg/h): 0 (0-24% control) | post-emergent herbicidal activity index (Hemp Sesbania; 4 WAT, 5.6 kg/h): 0 (0-24% control) | post-emergent herbicidal activity index (Wheat; 2 WAT, 0.28 kg/h): 0 (0-24% control) | post-emergent herbicidal activity index (Wheat; 4 WAT, 1.12 kg/h): 0 (0-24% control) | post-emergent herbicidal activity index (Wheat; 4 WAT, 5.6 kg/h): 2 (50-74% control) | post-emergent herbicidal activity index (Sugar Beet; 2 WAT, 0.28 kg/h): 0 (0-24% control) | post-emergent herbicidal activity index (Sugar Beet; 4 WAT, 1.12 kg/h): 0 (0-24% control) | post-emergent herbicidal activity index (Sugar Beet; 4 WAT, 5.6 kg/h): 1 (25-49% control) | post-emergent herbicidal activity index (Johnsongrass; 5.6 kg/h): 4 (100% control) | post-emergent herbicidal activity index (Johnsongrass; 11.2 kg/h): 3 (75-99% control) | post-emergent herbicidal activity index (Panicum Spp; 2 WAT, 0.28 kg/h): 0 (0-24% control) | post-emergent herbicidal activity index (Panicum Spp; 4 WAT, 1.12 kg/h): 0 (0-24% control) | post-emergent herbicidal activity index (Panicum Spp; 4 WAT, 5.6 kg/h): 1 (25-49% control) | post-emergent herbicidal activity index (Crabgrass; 2 WAT, 0.28 kg/h): 0 (0-24% control) | post-emergent herbicidal activity index (Crabgrass; 4 WAT, 1.12 kg/h): 2 (50-74% control) | post-emergent herbicidal activity index (Crabgrass; 4 WAT, 5.6 kg/h): 2 (50-74% control) | post-emergent herbicidal activity index (Barnyardgrass; Table I, 4 WAT, 5.6 kg/h): 2 (50-74% control) | post-emergent herbicidal activity index (Barnyardgrass; Table I, 4 WAT, 11.2 kg/h): 3 (75-99% control) | post-emergent herbicidal activity index (Barnyardgrass; Table II, 2 WAT, 0.28 kg/h): 0 (0-24% control) | post-emergent herbicidal activity index (Barnyardgrass; Table II, 4 WAT, 1.12 kg/h): 1 (25-49% control) | post-emergent herbicidal activity index (Barnyardgrass; Table II, 4 WAT, 5.6 kg/h): 3 (75-99% control) | post-emergent herbicidal activity index (Cocklebur; Table I, 4 WAT, 5.6 kg/h): 2 (50-74% control) | post-emergent herbicidal activity index (Cocklebur; Table I, 4 WAT, 11.2 kg/h): 2 (50-74% control) | post-emergent herbicidal activity index (Cocklebur; Table II, 2 WAT, 0.28 kg/h): 0 (0-24% control) | post-emergent herbicidal activity index (Cocklebur; Table II, 4 WAT, 1.12 kg/h): 1 (25-49% control) | post-emergent herbicidal activity index (Cocklebur; Table II, 4 WAT, 5.6 kg/h): 3 (75-99% control) | post-emergent herbicidal activity index (Lambsquarters; Table I, 4 WAT, 5.6 kg/h): 3 (75-99% control) | post-emergent herbicidal activity index (Lambsquarters; Table I, 4 WAT, 11.2 kg/h): 2 (50-74% control) | post-emergent herbicidal activity index (Lambsquarters; Table II, 2 WAT, 0.28 kg/h): 1 (25-49% control) | post-emergent herbicidal activity index (Lambsquarters; Table II, 4 WAT, 1.12 kg/h): 2 (50-74% control) | post-emergent herbicidal activity index (Lambsquarters; Table II, 4 WAT, 5.6 kg/h): 4 (100% control) | post-emergent herbicidal activity index (Downy Brome; Table I, 4 WAT, 5.6 kg/h): 2 (50-74% control) | post-emergent herbicidal activity index (Downy Brome; Table I, 4 WAT, 11.2 kg/h): 1 (25-49% control) | post-emergent herbicidal activity index (Downy Brome; Table II, 2 WAT, 0.28 kg/h): 0 (0-24% control) | post-emergent herbicidal activity index (Downy Brome; Table II, 4 WAT, 1.12 kg/h): 0 (0-24% control) | post-emergent herbicidal activity index (Downy Brome; Table II, 4 WAT, 5.6 kg/h): 3 (75-99% control) | post-emergent herbicidal activity index (Wild Buckwheat; 2 WAT, 0.28 kg/h): 0 (0-24% control) | post-emergent herbicidal activity index (Wild Buckwheat; 4 WAT, 1.12 kg/h): 1 (25-49% control) | post-emergent herbicidal activity index (Wild Buckwheat; 4 WAT, 5.6 kg/h): 0 (0-24% control) | post-emergent herbicidal activity index (Yellow Nutsedge; 5.6 kg/h): 3 (75-99% control) | post-emergent herbicidal activity index (Yellow Nutsedge; 11.2 kg/h): 3 (75-99% control) | post-emergent herbicidal activity index (Canada Thistle; 5.6 kg/h): 2 (50-74% control) | post-emergent herbicidal activity index (Canada Thistle; 11.2 kg/h): 2 (50-74% control) | post-emergent herbicidal activity index (Quackgrass; 5.6 kg/h): 1 (25-49% control) | post-emergent herbicidal activity index (Quackgrass; 11.2 kg/h): 2 (50-74% control) | post-emergent herbicidal activity index (Rice; 2 WAT, 0.28 kg/h): 0 (0-24% control) | post-emergent herbicidal activity index (Rice; 4 WAT, 1.12 kg/h): 0 (0-24% control) | post-emergent herbicidal activity index (Rice; 4 WAT, 5.6 kg/h): 2 (50-74% control) | post-emergent herbicidal activity index (Soybean; 2 WAT, 0.28 kg/h): 0 (0-24% control) | post-emergent herbicidal activity index (Soybean; 4 WAT, 1.12 kg/h): 1 (25-49% control) | post-emergent herbicidal activity index (Soybean; 4 WAT, 5.6 kg/h): 1 (25-49% control) | post-emergent herbicidal activity index (Morningglory; Table I, 4 WAT, 5.6 kg/h): 2 (50-74% control) | post-emergent herbicidal activity index (Morningglory; Table I, 4 WAT, 11.2 kg/h): 2 (50-74% control) | post-emergent herbicidal activity index (Morningglory; Table II, 2 WAT, 0.28 kg/h): 0 (0-24% control) | post-emergent herbicidal activity index (Morningglory; Table II, 4 WAT, 1.12 kg/h): 1 (25-49% control) | post-emergent herbicidal activity index (Smartweed; Table I, 4 WAT, 5.6 kg/h): 4 (100% control) | post-emergent herbicidal activity index (Smartweed; Table I, 4 WAT, 11.2 kg/h): 4 (100% control) | post-emergent herbicidal activity index (Smartweed; Table II, 2 WAT, 0.28 kg/h): 0 (0-24% control) | post-emergent herbicidal activity index (Smartweed; Table II, 4 WAT, 1.12 kg/h): 0 (0-24% control) | post-emergent herbicidal activity index (Smartweed; Table II, 4 WAT, 5.6 kg/h): 2 (50-74% control) | post-emergent herbicidal activity index (Sorghum; 2 WAT, 0.28 kg/h): 1 (25-49% control) | post-emergent herbicidal activity index (Sorghum; 4 WAT, 1.12 kg/h): 3 (75-99% control) | post-emergent herbicidal activity index (Sorghum; 4 WAT, 5.6 kg/h): 4 (100% control) | post-emergent herbicidal activity index (Velvetleaf; Table I, 4 WAT, 5.6 kg/h): 2 (50-74% control) | post-emergent herbicidal activity index (Velvetleaf; Table I, 4 WAT, 11.2 kg/h): 2 (50-74% control) | post-emergent herbicidal activity index (Velvetleaf; Table II, 2 WAT, 0.28 kg/h): 0 (0-24% control) | post-emergent herbicidal activity index (Velvetleaf; Table II, 4 WAT, 1.12 kg/h): 1 (25-49% control) | post-emergent herbicidal activity index (Velvetleaf; Table II, 4 WAT, 5.6 kg/h): 2 (50-74% control)
